Measurements: patent publication EP0192317A1, “Homocarnosine or acylhomocarnosine salts” (HAMARI YAKUHIN KOGYO KABUSHIKI KAISHA also known as HAMARI …, priority 1985, dated 1986)

Tests used:
[1] = tested on: Water-immersion stress ulcer; test: Water-immersion stress ulcer; type: in vivo, Male JCI-SD strain rats; details: for Ulcer Index (mm): 400 mg/kg orally 30 minutes before 7 hours immersion in 23°C water, sum of the lengths of the lesions in the body of the stomach; for Inhibition (%): 400 mg/kg orally, inhibition of water-immersion stress ulcer versus No drug
Description: After a fasting period of 24 hours, 400 mg/kg of each test compound was orally administered to each animal, and after 30 minutes, the animal was immobilized in a stress cage and was immersed in 23°C water down to the level of the thorax for 7 hours. After this stress loading, the rats was exsanguinated by decapitation and the stomach was excised and fixed in 1% formalin for 15 minutes. Then, an incision was made from the pyrolus along the greater curvature and the lengths of the lesions formed in the body of the stomach were measured using a dissecting microscope (with a scale graduated in 1/100 cm). The sum of the lengths was used as the ulcer index.

wound = test: Wound healing-promoting activity (tension required for separating the back skin wound); type: in vivo, Male rats; details: for Tension: 10 g in 20 ml of peanut oil, 0.05 ml per dose once daily for 10 consecutive days, tension required for separating the wound
Description: 2. Wound healing-promoting activity (Method)
Male rats weighing about 180 g-were used in groups of 9 animals. The hair on the back of each rat was clipped with an electric clipper and under ether anesthesia, a wound (20 mm long) was made with a chisel having a 20 mm edge in two positions of the cropped back. A suspension of each test compound (10 g) in 20 ml of peanut oil was applied to the wound in a volume of 0.05 ml per dose once daily for 10 consecutive days. After 10 days, the animal was bled to death by decapitation and the skin of the back was peeled until the wound was separated. The tension (grams) required for separating the wound was measured as an indicator of drug efficacy.

Wistar strain rats = test: Acute toxicity study; type: in vivo; details: orally 5 g/kg, observed for 7 days, rats of either sex
Excerpt: Wistar strain rats of either sex weighing 150 to 200 g were used in groups of 7 animals.

[2] = tested on: Pyrolic ligation-induced ulcer; test: Pyrolic ligation-induced ulcer (Shay method); type: in vivo, Male Wistar strains rats; details: for Inhibition (%): 300 mg/kg intraduodenally immediately after ligation, ulcer in the fore-stomach 13 hours after administration
Description: (b) Pyrolic ligation-induced ulcer
Male Wistar strains rats weighing about 300 g were deprived of food for 20 hours, with provision against fecal feeding, and used in groups of 8 animals. The pyrolus of each animal was ligated under ether anesthesia according to the method described by Shay et al. [H.G. Shay, S.A. Komarow, S.S. Felds, D. Meranze, M. Gruenstein, and H. Siplet, Gastroenterology, 5, 43 (1945)], and 300 mg/kg of each test compound was immediately administered intraduodenally. The incision was sutured and 13 hours after drug administration the rat was sacrified by cervical dislocation. The stomach was excised, slightly inflated by an injection of 1% formalin solution, immersed in the same solution for 15 minutes to fix the gastric wall, and then opened along the greater curvature. The ulcer in the fore-stomach was measured under a dissecting microscope .to calculate the ulcer index and the efficacy of the drug was expressed in terms of percent ulcer index.

Row | Compound | Ulcer Index (mm) [1] | Inhibition (%) [1] | Tension (wound) | death (Wistar strain rats) | Inhibition (%) [2] | wound healing-promoting effect (in words) (wound; summary of Table III) | antiulcer potency among the compounds tested (in words) ([2]; summary of Tables I and II)
1 | CN/C(=N/CCSCc1nc[nH]c1C)NC#N [Cimetidine, reference compound] | 4.02 mm | 60.7% | – | – | – | – | –
2 | NCCCC(=O)N[C@@H](Cc1cnc[nH]1)C(=O)O [Homocarnosine, L-homocarnosine] | 8.81 mm | 13.9% | 218.78 g | No death | 6.2% | – | –
3 | CC(=O)NCCCC(=O)N[C@@H](Cc1cnc[nH]1)C(=O)O [N-Acetyl-L-Homocarnosine, N-acetyl-L-homocarnosine, reference compound] | 9.95 mm | 6.7% | 207.45 g | No death | 2.4% | – | –
4 | (L-homocarnosine)2 zinc salt [(Homocarnosine)2 Zn] | 6.34 mm | 38.0% | – | – | – | – | –
5 | (N-acetyl-L-homocarnosine)2 zinc salt [(N-Acetyl-L-Homocarnosine)2 Zn] | 8.32 mm | 18.7% | – | – | – | – | –
6 | Basic aluminum sucrose sulfate [reference compound] | 8.54 mm | 16.6% | – | – | 4.7% | – | –
7 | Carnosine Zn [reference compound] | 4.61 mm | 54.9% | – | – | 39.2% | – | –
8 | L-homocarnosine aluminum salt [(Homocarnosine)2 AlOH] | 7.76 mm | 24.2% | – | – | – | – | –
9 | L-homocarnosine aluminum salt [(Homocarnosine)3 Al] | 8.24 mm | 19.5% | – | – | – | – | –
10 | L-homocarnosine aluminum salt [Homocarnosine Al(OH)2] | 7.10 mm | 30.6% | 220.28 g | – | 11.2% | – | –
11 | L-homocarnosine zinc salt [Homocarnosine Zn] | 3.85 mm | 62.4% | 249.36 g | – | 46.2% | particularly excellent | the most potent
12 | N-acetyl-L-homocarnosine aluminum salt [(N-Acetyl-L-Homocarnosine)2 Al] | 8.46 mm | 17.3% | – | – | – | – | –
13 | N-acetyl-L-homocarnosine aluminum salt [N-Acetyl-L-Homocarnosine Al(OH)2] | 5.40 mm | 47.2% | 203.57 g | – | 38.7% | – | –
14 | N-acetyl-L-homocarnosine zinc salt [N-Acetyl-L-Homocarnosine Zn] | 7.06 mm | 31.0% | 233.64 g | – | 22.1% | – | –
